Measured values published in patent publication US11666572B2, “Treatment of HER2 positive cancers” (Seagen Inc., priority 2017, dated 2023).
Like-named read-outs stand apart in the source and are kept apart here.

How the values were obtained:
[1] = system: Calu-3 NSCLC xenograft model; experiment: Calu-3 NSCLC xenograft model, tumor growth inhibition; format: in vivo, Mice; conditions: study day 28, tucatinib 50 mg/kg orally twice per day, trastuzumab 20 mg/kg IP once every three days, from study day 7
Protocol: (§1) The term “tumor growth inhibition (TGI) index” refers to a value used to represent the degree to which an agent (e.g., tucatinib, an anti-HER2 antibody, or a combination thereof) inhibits the growth of a tumor when compared to an untreated control. The TGI index is calculated for a particular time point (e.g., a specific number of days into an experiment or clinical trial) according to the following formula:
(§2) [formula] where “Tx Day 0” denotes the first day that treatment is administered (i.e., the first day that an experimental therapy or a control therapy (e.g., vehicle only) is administered) and “Tx Day X” denotes X number of days after Day 0.
(§3) For the Calu-3 study, tucatinib was administered orally at a dose of 50 mg/kg twice per day for 21 days, beginning on study day 7. […] A vehicle-only group was included as a negative control.

[2] = system: NCI-H2170 NSCLC xenograft model; experiment: NCI-H2170 NSCLC xenograft model, tumor growth inhibition; format: in vivo, Mice; conditions: study day 39, tucatinib 50 mg/kg orally twice per day, trastuzumab 20 mg/kg IP twice per week, from study day 18
Protocol: as §1, §2, §3
For the NCI-H2170 study, tucatinib was administered orally at a dose of 50 mg/kg twice per day for 21 days, beginning on study day 18. […] A vehicle-only group was included as a negative control.

CTG-0121 CRC PDX model = experiment: CTG-0121 CRC PDX model, tumor growth inhibition; format: in vivo, Mice; conditions: study day 29, tucatinib 50 mg/kg orally twice per day, trastuzumab 20 mg/kg IP once every three days
Protocol: as §1, §2
(§4) Tucatinib was administered orally at a dose of 50 mg/kg twice per day for 28 days (study days 0-27). […] A vehicle-only group was included as a negative control.

CTG-0784 CRC PDX model = experiment: CTG-0784 CRC PDX model, tumor growth inhibition; format: in vivo, Mice; conditions: study day 29, tucatinib 50 mg/kg orally twice per day, trastuzumab 20 mg/kg IP once every three days
Protocol: as §1, §2, §4

CTG-0383 CRC PDX model = experiment: CTG-0383 CRC PDX model, tumor growth inhibition; format: in vivo, Mice; conditions: study day 29, tucatinib 50 mg/kg orally twice per day, trastuzumab 20 mg/kg IP once every three days
Protocol: as §1, §2, §4

[3] = system: CTG-0137 esophageal cancer PDX model; experiment: CTG-0137 esophageal cancer PDX model, tumor growth inhibition; format: in vivo, Mice; conditions: study day 15, tucatinib 50 mg/kg orally twice per day, trastuzumab 20 mg/kg IP once every three days
Protocol: as §1, §2, §4

[4] = system: CTG-0138 esophageal cancer PDX model; experiment: CTG-0138 esophageal cancer PDX model, tumor growth inhibition; format: in vivo, Mice; conditions: study day 30, tucatinib 50 mg/kg orally twice per day, trastuzumab 20 mg/kg IP once every three days
Protocol: as §1, §2, §4

[5] = system: CTG-0927 HER2 positive cholangiocarcinoma PDX model; experiment: CTG-0927 cholangiocarcinoma PDX model, tumor growth inhibition; format: in vivo, Mice; conditions: study day 28, tucatinib 50 mg/kg orally twice per day, trastuzumab 20 mg/kg IP once every three days
Protocol: as §1, §2, §4

[6] = system: GXA 3038 gastric cancer PDX model; experiment: GXA 3038 gastric cancer PDX model, tumor growth inhibition; format: in vivo, Mice; conditions: study day 28, tucatinib 50 mg/kg orally twice per day, trastuzumab 20 mg/kg IP once every three days
Protocol: as §1, §2, §4

[7] = system: GXA 3039 gastric cancer PDX model; experiment: GXA 3039 gastric cancer PDX model, tumor growth inhibition; format: in vivo, Mice; conditions: study day 29, tucatinib 50 mg/kg orally twice per day, trastuzumab 20 mg/kg IP once every three days
Protocol: as §1, §2, §4

[8] = system: GXA 3054 gastric cancer PDX model; experiment: GXA 3054 gastric cancer PDX model, tumor growth inhibition; format: in vivo, Mice; conditions: study day 17, tucatinib 50 mg/kg orally twice per day, trastuzumab 20 mg/kg IP once every three days
Protocol: as §1, §2, §4

[9] = Clinical safety observations in patients; format: in vivo, human; conditions: patients on tucatinib studies
From the text: Cardiac function is therefore monitored closely.
Monitoring of liver function tests is required for any patient taking tucatinib.
Patients with brain metastases are at risk for occurrence of AEs due to the presence of CNS lesions, progression of disease and toxicities potentially related to study treatment. On occasion, treatment of brain metastases with systemic or radiation therapy has been associated with localized edema thought to be due to treatment effect and not tumor progression. […] The patient's symptoms responded rapidly and completely to systemic corticosteroids. It was not known if this patient's symptoms were due to local progression or treatment-related toxicity. […] The patient was taken for surgical resection, and found to have no viable tumor. The resected lesion was thought to represent treatment-related necrosis.

Calu-3 cells = experiment: Response of Calu-3 cells in vitro; format: cell-based; conditions: previously demonstrated
NCI-H2170 cells = experiment: Response of NCI-H2170 cells in vitro; format: cell-based; conditions: previously demonstrated
[10] = attributed to anti-EGFR/HER1 activity of the drug; cited from earlier work
[11] = cited from earlier work
[12] = system: HER2 positive metastatic CRC (wild-type KRAS exon 2); conditions: HERACLES patients, previous treatment with cetuximab or panitumumab; cited from earlier work
[13] = Table 11, strong inhibitors or inducers of CYP3A4
[14] = Table 10, strong inhibitors and inducer of CYP2C8

Cc1cc(Nc2ncnc3ccc(NC4=NC(C)(C)CO4)cc23)ccc1Oc1ccn2ncnc2c1 [Tucatinib, tucatinib]
Observed TGI (%) [1]: 63%
Observed TGI (%) [2]: 91%
Observed TGI (%) (CTG-0121 CRC PDX model): 104%
Observed TGI (%) (CTG-0784 CRC PDX model): 50%
Observed TGI (%) (CTG-0383 CRC PDX model): 117%
Observed TGI (%) [3]: 49%
Observed TGI (%) [4]: 69%
Observed TGI (%) [5]: 48%
Observed TGI (%) [6]: 110%
Observed TGI (%) [7]: 48%
Observed TGI (%) [8]: 65%
Elevation of liver function tests [9]: Grade 3 and 4 elevation of LFTs have been seen in some patients
Response in vitro (Calu-3 cells): good responses
Response in vitro (NCI-H2170 cells): good responses

CS(=O)(=O)CCNCc1ccc(-c2ccc3ncnc(Nc4ccc(OCc5cccc(F)c5)c(Cl)c4)c3c2)o1 [lapatinib]
Toxicities [10]: rash, diarrhea, and fatigue

C[C@@H](c1ncncc1F)[C@](O)(Cn1cncn1)c1ccc(F)cc1F [Voriconazole]
Elimination Half-life (hours) [11, 13]: Dose dependent

CC[C@H]1OC(=O)[C@H](C)[C@@H](O[C@H]2C[C@@](C)(OC)[C@@H](O)[C@H](C)O2)[C@H](C)[C@@H](O[C@@H]2O[C@H](C)C[C@H](N(C)C)[C@H]2O)[C@](C)(OC)C[C@@H](C)C(=O)[C@H](C)[C@@H](O)[C@]1(C)O [Clarithromycin]
Elimination Half-life [11, 13]: 3 to 7 h

CC(C)(O)c1ccccc1CC[C@@H](SCC1(CC(=O)O)CC1)c1cccc(/C=C/c2ccc3ccc(Cl)cc3n2)c1 [Montelukast]
Elimination Half-life [11, 14]: 3 to 6 h (drug insert)

O=C1NC(=O)C(c2ccccc2)(c2ccccc2)N1 [Phenytoin]
Elimination Half-life [11, 13]: 7 to 42 h

COc1cc(Cc2cnc(N)nc2N)cc(OC)c1OC [Trimethoprim]
Elimination Half-life [11, 14]: 8 to 10 h

CCC(C)n1ncn(-c2ccc(N3CCN(c4ccc(OCC5COC(Cn6cncn6)(c6ccc(Cl)cc6Cl)O5)cc4)CC3)cc2)c1=O (stereo not drawn) [Itraconazole]
Elimination Half-life ([11]; Table 11, single dose): 21 h
Elimination Half-life ([11]; Table 11, steady state): 64 h

O=c1c(O)c(-c2ccc(O)c(O)c2)oc2cc(O)cc(O)c12 [Quercetin]
Elimination Half-life [11, 14]: <2 h

NC(=O)N1c2ccccc2C=Cc2ccccc21 [Carbamazepine]
Elimination Half-life [11, 13]: 25 to 65 h

CC[C@H]1OC(=O)[C@H](C)[C@@H](O[C@H]2C[C@@](C)(OC)[C@@H](O)[C@H](C)O2)[C@H](C)[C@@H](O[C@@H]2O[C@H](C)C[C@H](N(C)C)[C@H]2O)[C@](C)(O)C[C@@H](C)C(=O)[C@H](C)[C@@H](O)[C@]1(C)O [Erythromycin]
Elimination Half-life [11, 13]: 2 h

CC[C@H]1OC(=O)[C@H](C)C(=O)[C@H](C)[C@@H](O[C@@H]2O[C@H](C)C[C@H](N(C)C)[C@H]2O)[C@](C)(OC)C[C@@H](C)C(=O)[C@H](C)[C@H]2N(CCCCn3cnc(-c4cccnc4)c3)C(=O)O[C@]12C [Telithromycin]
Elimination Half-life [11, 13]: 10 h

CC(=O)N1CCN(c2ccc(OCC3COC(Cn4ccnc4)(c4ccc(Cl)cc4Cl)O3)cc2)CC1 (stereo not drawn) [ketoconazole (systemic), ketoconazole]
Elimination Half-life [11, 13]: 2 to 8 h

C#C[C@]1(O)CC[C@H]2[C@@H]3CCC4=Cc5oncc5C[C@]4(C)[C@H]3CC[C@@]21C [Danazol]
Elimination Half-life [11, 13]: 24 to 26 h

CN(CCOc1ccc(CC2SC(=O)NC2=O)cc1)c1ccccn1 (stereo not drawn) [Rosiglitazone]
Elimination Half-life [11, 14]: 16 to 24 h

Cc1ccc(C)c(OCCCC(C)(C)C(=O)O)c1 [Gemfibrozil]
Elimination Half-life [11, 14]: 1 to 2 h

CCc1ccc(CCOc2ccc(CC3SC(=O)NC3=O)cc2)nc1 (stereo not drawn) [Pioglitazone]
Elimination Half-life [11, 14]: 3 to 7 h

panitumumab
ORR on previous treatment [12]: 0%

CCc1nn(CCCN2CCN(c3cccc(Cl)c3)CC2)c(=O)n1CCOc1ccccc1 [Nefazodone]
Elimination Half-life [11, 13]: 2 to 4 h
